Experimental data as given in patent US10294248B2, “Beta-lactamase inhibitors” (VenatoRx Pharmaceuticals, Inc., priority 2013, dated 2019).

Legend:
[1] = system: E. cloacae 144200 expressing Class C P99 AmpC; experiment: Broth microdilution MIC, E. cloacae 144200 p99 AmpC; assay type: cell-based; conditions: fixed 4 μg/mL ceftazidime; CAMHB, 16-20 hours at 37° C.
Summary of the method: (§1)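 The MIC, judged visually after 16-20 hours at 37° C, is the lowest test-compound level stopping growth when combined with a β-lactam at a constant 4 μg/ml. Compound was titrated two-fold over 32 to 0.25 μg/ml in cation-adjusted Mueller Hinton broth.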

[2] = system: E. coli ESBL4 expressing CTX-M-15; experiment: Broth microdilution MIC, E. coli ESBL4 CTX-M-15; assay type: cell-based; conditions: fixed 4 μg/mL ceftazidime; CAMHB, 16-20 hours at 37° C.
Summary of the method: as §1

[3] = molecular target: T1, SHV-5 β-lactamase (Class A ESBL) (Klebsiella pneumoniae, UniProt P0A3M1); experiment: β-Lactamase inhibition, SHV-5; assay type: biochemical
T1 construct: made in house; host or cells: E. coli BL21(DE3)
T1 sequence (P0A3M1 22-286): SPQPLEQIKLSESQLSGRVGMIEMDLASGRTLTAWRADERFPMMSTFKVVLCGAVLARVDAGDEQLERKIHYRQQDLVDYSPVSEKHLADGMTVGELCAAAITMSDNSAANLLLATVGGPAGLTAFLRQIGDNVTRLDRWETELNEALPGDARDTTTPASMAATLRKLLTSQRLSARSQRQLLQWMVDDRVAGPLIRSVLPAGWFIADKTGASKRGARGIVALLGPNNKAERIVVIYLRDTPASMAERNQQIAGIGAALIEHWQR
Summary of the method: (§2)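 Native untagged β-lactamases were expressed in E. coli BL21(DE3), then purified by cation exchange and gel filtration. Enzyme was preincubated with inhibitor for 15 min at 37 °C before substrate was added. Imipenem (A300) served KPC-2 and cefotaxime (A260) served SHV-5. IC50 was taken from initial hydrolysis rates relative to no-inhibitor controls.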

[4] = molecular target: T2, VIM-2 metallo-β-lactamase (Class B) (Pseudomonas aeruginosa, UniProt Q9K2N0); experiment: β-Lactamase inhibition, VIM-2; assay type: biochemical; conditions: nitrocefin 100 μM, 486 nm; 15 min preincubation at 37° C., PBS pH 7.4
T2 construct: made in house; host or cells: E. coli BL21(DE3)
Summary of the method: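 Nitrocefin hydrolysis, read at 486 nm over 10 min, served as the measure of VIM-2 activity. The enzyme had been incubated with compound for 15 min at 37 °C before 100 μM substrate was added, and IC50 values were fitted from percent inhibition of the initial rate.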

[5] = system: S. aureus MSSA-7 producing penicillinase PC-1; experiment: Broth microdilution MIC, S. aureus MSSA-7 PC-1; assay type: cell-based; conditions: fixed 4 μg/mL piperacillin; CAMHB, 16-20 hours at 37° C.
Summary of the method: as §1

[6] = system: K. pneumoniae 156319 expressing KPC-3; experiment: Broth microdilution MIC, K. pneumoniae 156319 KPC-3; assay type: cell-based; conditions: fixed 4 μg/mL meropenem; CAMHB, 16-20 hours at 37° C.
Summary of the method: as §1

[7] = system: P. aeruginosa Ps296 expressing VIM-2; experiment: Broth microdilution MIC, P. aeruginosa Ps296 VIM-2; assay type: cell-based; conditions: fixed 4 μg/mL meropenem; CAMHB, 16-20 hours at 37° C.
Summary of the method: as §1

[8] = molecular target: T3, KPC-2 β-lactamase (Class A carbapenemase) (Klebsiella pneumoniae, UniProt Q9F663); experiment: β-Lactamase inhibition, KPC-2; assay type: biochemical; conditions: imipenem substrate, 300 nm; 15 min preincubation at 37° C., PBS pH 7.4
T3 construct: made in house; host or cells: E. coli BL21(DE3)
T3 sequence (Q9F663 25-293, looked up): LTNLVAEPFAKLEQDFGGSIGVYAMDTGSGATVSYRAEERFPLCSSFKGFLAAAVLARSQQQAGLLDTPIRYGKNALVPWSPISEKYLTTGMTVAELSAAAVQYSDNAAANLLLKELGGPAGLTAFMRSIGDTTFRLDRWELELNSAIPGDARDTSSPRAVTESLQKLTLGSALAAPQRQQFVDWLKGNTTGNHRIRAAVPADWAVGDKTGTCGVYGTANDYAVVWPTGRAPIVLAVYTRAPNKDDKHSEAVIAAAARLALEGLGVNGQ
Summary of the method: as §2

[9] = molecular target: T4, OXA-1 β-lactamase (Class D oxacillinase) (Escherichia coli, UniProt P13661); experiment: β-Lactamase inhibition, OXA-1; assay type: biochemical; conditions: nitrocefin 100 μM, 486 nm; 15 min preincubation at 37° C., PBS pH 7.4
T4 construct: made in house; host or cells: E. coli BL21(DE3)
T4 sequence (P13661 26-276): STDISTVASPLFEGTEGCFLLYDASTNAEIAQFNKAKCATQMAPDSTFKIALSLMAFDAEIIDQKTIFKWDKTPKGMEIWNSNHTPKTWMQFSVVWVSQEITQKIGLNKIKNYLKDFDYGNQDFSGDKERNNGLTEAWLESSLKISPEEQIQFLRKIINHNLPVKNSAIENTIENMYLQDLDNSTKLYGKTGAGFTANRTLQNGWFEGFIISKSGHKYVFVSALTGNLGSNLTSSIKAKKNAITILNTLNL
Summary of the method: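 Untagged enzyme from E. coli BL21(DE3), purified by Capto S then Superdex 75; 15 min 37 °C preincubation with inhibitor; KPC-2 read with imipenem at 300 nm, SHV-5 with cefotaxime at 260 nm, OXA-1 with nitrocefin 100 μM final at 486 nm; 10 min kinetic read; IC50 vs uninhibited wells.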

[10] = molecular target: T5, p99 AmpC β-lactamase (Class C) (Enterobacter cloacae, UniProt P05364); experiment: β-Lactamase inhibition, p99 AmpC; assay type: biochemical
T5 construct: made in house; host or cells: E. coli BL21(DE3)
T5 sequence (P05364 21-381): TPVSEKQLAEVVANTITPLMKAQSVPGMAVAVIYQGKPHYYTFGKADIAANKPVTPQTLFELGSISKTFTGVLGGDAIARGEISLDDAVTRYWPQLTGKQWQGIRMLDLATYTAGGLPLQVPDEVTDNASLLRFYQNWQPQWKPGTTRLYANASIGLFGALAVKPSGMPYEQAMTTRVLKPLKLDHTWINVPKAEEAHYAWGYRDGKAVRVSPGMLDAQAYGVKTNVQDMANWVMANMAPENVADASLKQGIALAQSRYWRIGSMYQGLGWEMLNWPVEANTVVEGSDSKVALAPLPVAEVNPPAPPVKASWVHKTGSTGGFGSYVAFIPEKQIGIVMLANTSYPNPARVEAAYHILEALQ

[11] = system: K. pneumoniae A-1797 expressing KPC-2 and VIM-4; experiment: Broth microdilution MIC, K. pneumoniae A-1797 KPC-2/VIM-4; assay type: cell-based; conditions: fixed 4 μg/mL meropenem; CAMHB, 16-20 hours at 37° C.
Summary of the method: as §1

SMILES | MIC of example compound in presence of fixed β-lactam: Fixed CAZ, E. cl. 144200 p99 AmpC [1] | MIC of example compound in presence of fixed β-lactam: Fixed CAZ, E. coli ESBL4 CTX-M-15 [2] | IC50 [3] [nM] | IC50 [4] [nM] | MIC of example compound in presence of fixed β-lactam: Fixed Pip, S. aureus MSSA-7 PC-1 [5] | MIC of example compound in presence of fixed β-lactam: Fixed Mero, K. P. 156319 KPC-3 [6] | MIC of example compound in presence of fixed β-lactam: Fixed Mero, P. aerug. Ps296 VIM-2 [7] | IC50 [8] [nM] | IC50 [9] [nM] | IC50 [10] [nM] | MIC of example compound in presence of fixed β-lactam: Fixed Mero, K. P. A-1797 KPC-2 VIM-4 [11]
O=C(O)c1cccc2c1OB(O)[C@@H](NC(=O)C1CN(c3ncccn3)C1)C2 [Example 48, (R)-2-hydroxy-3-(1-(pyrimidin-2-yl)azetidine-3-carboxamido)-3,4-dihydro-2H-benzo[e][1,2]oxaborinine-8-carboxylic acid] | C (the MIC in the presence of <4 μg/mL of a β-lactamase inhibitor) | C (the MIC in the presence of <4 μg/mL of a β-lactamase inhibitor) | < 100 | 1000 to 10000 | C (the MIC in the presence of <4 μg/mL of a β-lactamase inhibitor) | C (the MIC in the presence of <4 μg/mL of a β-lactamase inhibitor) | C (the MIC in the presence of <4 μg/mL of a β-lactamase inhibitor) | < 100 | < 100 | < 100 | B (the MIC in the presence of between 8 and 32 μg/mL of a β-lactamase inhibitor)
NC1(C(=O)N[C@H]2Cc3cccc(C(=O)O)c3OB2O)CCNCC1 [Example 49, 3-[(4-Amino-piperidine-4-carbonyl)-amino]-2-hydroxy-3,4-dihydro-2H-benzo[e][1,2]oxaborinine-8-carboxylic acid] | C (the MIC in the presence of <4 μg/mL of a β-lactamase inhibitor) | C (the MIC in the presence of <4 μg/mL of a β-lactamase inhibitor) | < 100 | 1000 to 10000 | C (the MIC in the presence of <4 μg/mL of a β-lactamase inhibitor) | C (the MIC in the presence of <4 μg/mL of a β-lactamase inhibitor) | B (the MIC in the presence of between 8 and 32 μg/mL of a β-lactamase inhibitor) | < 100 | < 100 | < 100 | A (an MIC of the fixed β-lactam antibiotic in the presence of >32 μg/mL of a β-lactamase inhibitor)
O=C(O)c1cccc2c1OB(O)[C@@H](NC(=O)C1CNCCN1)C2 (stereo partly shown) [Example 50, 2-Hydroxy-3-[(piperazine-2-carbonyl)-amino]-3,4-dihydro-2H-benzo[e][1,2]oxaborinine-8-carboxylic acid] | C (the MIC in the presence of <4 μg/mL of a β-lactamase inhibitor) | C (the MIC in the presence of <4 μg/mL of a β-lactamase inhibitor) | < 100 | 1000 to 10000 | C (the MIC in the presence of <4 μg/mL of a β-lactamase inhibitor) | C (the MIC in the presence of <4 μg/mL of a β-lactamase inhibitor) | C (the MIC in the presence of <4 μg/mL of a β-lactamase inhibitor) | < 100 | < 100 | < 100 | A (an MIC of the fixed β-lactam antibiotic in the presence of >32 μg/mL of a β-lactamase inhibitor)
CN1CCC(C(=O)N[C@H]2Cc3cccc(C(=O)O)c3OB2O)(N(C)C)CC1 [Example 51, 3-[(4-Dimethylamino-1-methyl-piperidine-4-carbonyl)-amino]-2-hydroxy-3,4-dihydro-2H-benzo[e][1,2]oxaborinine-8-carboxylic acid] | C (the MIC in the presence of <4 μg/mL of a β-lactamase inhibitor) | C (the MIC in the presence of <4 μg/mL of a β-lactamase inhibitor) | 1000 to 10000 | 1000 to 10000 | C (the MIC in the presence of <4 μg/mL of a β-lactamase inhibitor) | C (the MIC in the presence of <4 μg/mL of a β-lactamase inhibitor) | C (the MIC in the presence of <4 μg/mL of a β-lactamase inhibitor) | < 100 | 100 to 1000 | < 100 | A (an MIC of the fixed β-lactam antibiotic in the presence of >32 μg/mL of a β-lactamase inhibitor)
NCCN1CCC(NCC(=O)N[C@H]2Cc3cccc(C(=O)O)c3OB2O)CC1 [Example 52, 3-{2-[1-(2-Amino-ethyl)-piperidin-4-ylamino]-acetylamino}-2-hydroxy-3,4-dihydro-2H-benzo[e][1,2]oxaborinine-8-carboxylic acid] | C (the MIC in the presence of <4 μg/mL of a β-lactamase inhibitor) | C (the MIC in the presence of <4 μg/mL of a β-lactamase inhibitor) | < 100 | 1000 to 10000 | C (the MIC in the presence of <4 μg/mL of a β-lactamase inhibitor) | C (the MIC in the presence of <4 μg/mL of a β-lactamase inhibitor) | B (the MIC in the presence of between 8 and 32 μg/mL of a β-lactamase inhibitor) | < 100 | < 100 | < 100 | B (the MIC in the presence of between 8 and 32 μg/mL of a β-lactamase inhibitor)
